Data set [1] in a line: Apparent LNP pKa by 2-(p-toluidino)-6-napthalene sulfonic acid (TNS) assay. It counts as physicochemical. As to conditions: pH at half of maximum fluorescence.
A short description of data set [2]: Encapsulation efficiency (% EE), ribostar. Conditions: nanoparticles, compound:DSPC:cholesterol:PEG 2 50:10:38:2 mol %. In kind it is physicochemical. The text has this:
The efficiency of encapsulation of a therapeutic and/or prophylactic describes the amount of therapeutic and/or prophylactic that is encapsulated or otherwise associated with a lipid nanoparticle (e.g., an empty LNP or a loaded LNP) after preparation, relative to the initial amount provided. The encapsulation efficiency is desirably high (e.g., close to 100%). The encapsulation efficiency may be measured, for example, by comparing the amount of therapeutic and/or prophylactic in a solution containing the lipid nanoparticle (e.g., an empty LNP or a loaded LNP) before and after breaking up the lipid nanoparticle (e.g., an empty LNP or a loaded LNP) with one or more organic solvents or detergents. Fluorescence may be used to measure the amount of free therapeutic and/or prophylactic (e.g., RNA) in a solution. For the lipid nanoparticles (e.g., empty LNPs or loaded LNPs) described herein, the encapsulation efficiency of a therapeutic and/or prophylactic may be at least 50%, for example 50%, 55%, 60%, 65%, 70%, 75%, 80%, 85%, 90%, 91%, 92%, 93%, 94%, 95%, 96%, 97%, 98%, 99%, or 100%. In some embodiments, the encapsulation efficiency may be at least 80%. In certain embodiments, the encapsulation efficiency may be at least 90%. In some embodiments, the encapsulation efficiency of the therapeutic and/or prophylactic agent is between 80% and 100%.
Nanoparticle compositions including a therapeutic and/or prophylactic can be optimized according to the selection of a compound according to Formula (I), (I-1), (A), (A-1), (A-1a), or (A-1b), the selection of additional lipids, the amount of each lipid in the lipid component, and the wt:wt ratio of the lipid component to the therapeutic and/or prophylactic. Nanoparticle compositions including DSPC as a phospholipid, cholesterol as a structural lipid, PEG 2 as a PEG lipid, and a compound according to Formula (I), (I-1), (A), (A-1), (A-1a), or (A-1b) were prepared. The ratios of the lipids were 50:10:38:2 mol % for the lipid according to Formula (I), (I-1), (A), (A-1), (A-1a), or (A-1b):DSPC:cholesterol:PEG 2. Tables 2a, 2b, and 3-5 summarize the characteristics of the formulations.
Table 4 summarizes the surface hydrophobicity of nanoparticles comprising compounds of the disclosure as determined by Generalized Polarization by Laurdan (GPL). Laurdan, a fluorescent aminonaphthalene ketone lipid, was post-inserted into the nanoparticle surface and the fluorescence spectrum of Laurdan was collected to determine the normalized Generalized Polarization (N-GP). Higher N-GP indicates a less polar surface.

The test system of data set [3] is serum protein ApoE. Briefly: ApoE binding affinity of nanoparticles (bead binding, flow cytometry). The protocol:
The ApoE binding affinity, i.e., the affinity of binding between nanoparticles comprising compounds of the disclosure and the serum protein ApoE, was determined by binding the nanoparticles to beads, then incubating them with known quantities of […]. The quantity of protein bound to the nanoparticle was then determined by flow cytometry.

A short description of data set [4]: Size and polydispersity index of nanoparticles comprising compounds of the disclosure. It counts as physicochemical. As to conditions: compound:DSPC:cholesterol:PEG 2 50:10:38:2 mol %. Summed up:
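LNPs contained test lipid:DSPC:cholesterol:PEG 2 at 50:10:38:2 mol %. Size and polydispersity index were measured by dynamic light scattering.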

In data set [5] the test system is mRNA. As to the kind of experiment: mRNA integrity in nanoparticles by RP-IP HPLC (UV 260 nm). It counts as physicochemical. Here is the method:
Integrity of mRNA comprised in nanoparticles of the disclosure, i.e., the percentages of intact mRNA, mRNA adducts, and mRNA hydrolysis products, […] (Reverse-Phase Ion-Pairing HPLC) using UV detection at 260 nm. Total purity and impurities are calculated as percent peak area.

Data set [6] in a line: Encapsulation efficiency (% EE), ribogreen. As to conditions: nanoparticles, compound:DSPC:cholesterol:PEG 2 50:10:38:2 mol %. In kind it is physicochemical. A digest of the protocol:
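Encapsulated RNA fraction determined by fluorescence of free RNA before and after LNP disruption with detergent or solvent. LNPs contained ionizable lipid:DSPC:cholesterol:PEG lipid at 50:10:38:2 mol %.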

Data set [7] is described as follows: Heparin-sepharose binding of nanoparticles.
Data set [8] deals with hEPO mRNA. Briefly: hEPO expression in CD1-mice after intravenous administration of nanoparticles. As to conditions: 6 h after intravenous administration, mRNA dose 0.5 mg/kg, N:P 3.4, compound:DSPC:cholesterol:PEG 2 50:10:38:2. It counts as in vivo. Here is the method: The expression of hEPO mRNA in CD1-mice was measured 6 h after intravenous administration of nanoparticles comprising a compound of the disclosure, DSPC, cholesterol, and PEG 2 in a ratio of 50:10:38:2. […] Each composition was dosed to 8 animals at an mRNA dose of 0.5 mg/kg.

The nature of data set [9]: Surface hydrophobicity by Generalized Polarization by Laurdan (GPL). In kind it is physicochemical. As to conditions: normalized Generalized Polarization by Laurdan; higher N-GP = less polar surface. A digest of the protocol:
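LNPs contained ionizable lipid:DSPC:cholesterol:PEG lipid at 50:10:38:2 mol %. Laurdan was post-inserted into the particle surface, and its fluorescence spectrum gave normalized generalized polarization (N-GP); higher N-GP means a less polar surface.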

[10] abbreviates: mRNA integrity after 2 weeks at 25° C., percent peak area.
[11] abbreviates: mRNA integrity at t = 0, percent peak area.

`CCCCCCCCC(CC)OC(=O)CCCCCCCN(CCCCCCCC(=O)OC(CCCCCCCC)CCCCCCCC)CCCNS(=O)(=O)C[C@H]1COCCO1` (stereo partly drawn) [Compound 70, Heptadecan-9-yl 8-((3-((((R)-1,4-dioxan-2-yl)methyl)sulfonamido)propyl)(8-oxo-8-(undecan-3-yloxy)octyl)amino)octanoate]: the “LogIC50 (pKa)” value in [1] stood at 6.75. Also, the “% EE (ribostar)” value in [2] is on record as 60.7%. For the same compound, the “Median Fluorescence Intensity, PE” value in data set [3] came out at 121247. In addition, in data set [4], the PDI stood at 0.123 and the “Size (nm)” value is on record as 72.6 nm. Further, in [5] (setting [10]), the Adduct came to 12.7%, the “Hydrolysis Product” value is 50.1% and the Intact worked out at 37.2%. Moreover, in [5] (setting [11]), the Adduct was determined as 10.3%, the “Hydrolysis Product” value is on record as 40.2% and the Intact came to 49.5%. Moreover, the “% EE (ribogreen)” value in data set [6] stood at 89.9%. For the same compound, the “Relative % Area Bound by LNP” value in data set [7] was 0%. In addition, the “Avg. [hEPO] mIU/mL” value in data set [8] came to 9.18E+05 mIU/mL. Moreover, the “Average N-GP” value in data set [9] was found to be 0.902.
As for `CCCCCCCCC(CC)OC(=O)CCCCCCCN(CCCCCCCC(=O)OC(CCCCCCCC)CCCCCCCC)CCCNS(=O)(=O)Cc1ccon1` (stereo not drawn) [Compound 71, Heptadecan-9-yl 8-((3-((isoxazol-3-ylmethyl)sulfonamido)propyl)(8-oxo-8-(undecan-3-yloxy)octyl)amino)octanoate], in [1], the “LogIC50 (pKa)” value came out at 6.54. In addition, in data set [2], the “% EE (ribostar)” value is 50.7%. Besides, the “Median Fluorescence Intensity, PE” value in data set [3] was 147047. For the same compound, in data set [4], the PDI amounted to 0.109 and the “Size (nm)” value came to 64.7 nm. Moreover, in [5] (setting [10]), the Adduct stood at 20.2%, the “Hydrolysis Product” value is reported as 35.9% and the Intact stood at 43.9%. Besides, in data set [5] (setting [11]), the Adduct is 8.7%, the “Hydrolysis Product” value is 30.8% and the Intact is reported as 60.6%. For the same compound, the “% EE (ribogreen)” value in data set [6] is listed as 90.8%. Also, the “Relative % Area Bound by LNP” value in [7] is 0%. The “Avg. [hEPO] mIU/mL” value in [8] is 1.50E+06 mIU/mL. For the same compound, the “Average N-GP” value in data set [9] turned out to be 0.874.
For the compound `CCCCCCCCC(CC)OC(=O)CCCCCCCN(CCCCCCCC(=O)OC(CCCCCCCC)CCCCCCCC)CCCNC1=C(C(N)=O)C(=O)OC1` (stereo not drawn) [Compound 72, Heptadecan-9-yl 8-((3-((4-carbamoyl-5-oxo-2,5-dihydrofuran-3-yl)amino)propyl)(8-oxo-8-(undecan-3-yloxy)octyl)amino)octanoate], the “LogIC50 (pKa)” value in data set [1] was 6.39. In addition, the “% EE (ribostar)” value in data set [2] was found to be 78.6%. The “Median Fluorescence Intensity, PE” value in data set [3] was 78901. Moreover, in data set [4], the PDI is 0.090 and the “Size (nm)” value amounted to 76.7 nm. Further, in [5] (setting [10]), the Adduct is given as 24.9%, the “Hydrolysis Product” value turned out to be 23.5% and the Intact came out at 51.6%. In addition, in data set [5] (setting [11]), the Adduct turned out to be 5.6%, the “Hydrolysis Product” value is given as 16.8% and the Intact is recorded as 77.7%. Further, in data set [6], the “% EE (ribogreen)” value was determined as 91.2%. Moreover, the “Relative % Area Bound by LNP” value in [7] is 0%. Also, the “Avg. [hEPO] mIU/mL” value in [8] is 7.36E+05 mIU/mL. Also, the “Average N-GP” value in [9] stood at 0.988.

Values taken from patent US20230000773A1, “NOVEL HEADGROUP LIPID COMPOUNDS AND COMPOSITIONS FOR INTRACELLULAR DELIVERY OF THERAPEUTIC AGENTS” (ModernaTX, Inc., priority 2019, published 2023).
